Measured values: publication PMC10326885, “Design of Heme Enzymes with a Tunable Substrate Binding Pocket Adjacent to an Open Metal Coordination Site” (Journal of the American Chemical Society, 2023)

Biological target: T1, dnHEM1 (synthetic construct, UniProt Z9V042XZY6)
T1 construct: de novo alpha-helical closed solenoid (toroid) from designed scaffold PDB 4YXX, redesigned with Rosetta, surface desymmetrized by K29W and K165Y (already part of dnHEM1); expressed in E. coli; monomer
T1 sequence (Z9V042XZY6 1-210): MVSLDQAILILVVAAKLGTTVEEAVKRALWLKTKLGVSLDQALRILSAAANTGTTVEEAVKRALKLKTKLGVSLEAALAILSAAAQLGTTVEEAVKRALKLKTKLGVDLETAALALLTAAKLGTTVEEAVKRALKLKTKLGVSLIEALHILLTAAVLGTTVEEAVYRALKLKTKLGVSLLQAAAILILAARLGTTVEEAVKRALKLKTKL
Experiment: UV/Vis titration of hemin into apo-protein, absorbance at […] nm
Assay type: binding

Kd: 2.5 ± 1.2 nM
SMILES: C=CC1=C(C)C2=Cc3c(C=C)c(C)c4[n]3[Fe]([Cl])[n]3c(c(C)c(CCC(=O)O)c3=CC3=NC(=C4)C(C)=C3CCC(=O)O)=CC1=N2 [hemin]
